Experiments:
Type in all cases: cell-based
EML4-ALK Ba/F3 = target: T1, EML4-ALK Ba/F3 (Homo sapiens, UniProt Q9UM73); experiment: Cell proliferation assay, EML4-ALK Ba/F3 stable cell line (CellTiter-Glo); details: Ba/F3-EML4-ALK wild type (variant 1) cells, 72 hours compound incubation; read-out: Cell Proliferation IC50 EML4-ALK Ba/F3
T1 construct: fused on or other part: Q9HC35 (Echinoderm microtubule-associated protein-like 4)
Method in brief: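 Ba/F3 cells were lentivirally transduced with wild-type CD74-ROS1 or EML4-ALK (variant 1), selected with puromycin and made IL-3-independent. Cells (3000/well) were seeded overnight and then treated with the compounds at various concentrations for 72 h. Proliferation was read by CellTiter-Glo ATP luminescence, and IC50 values were fitted.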

[1] = system: T cell lymphoma Karpas-299 cell line (harboring endogenous NPM-ALK fusion gene); experiment: Cell proliferation assay, Karpas-299 cells (CellTiter-Glo); details: Homo sapiens, 72 hours incubation
Description: Cell Proliferation Assays.
Colorectal cell lines KM 12 (harboring endogenous TPM3-TRKA fusion gene) cells were cultured in DMEM medium, supplemented with 10% fetal bovine serum and 100 U/mL of penicillin/streptomycin. 5000 cells were seeded in 384 well white plate for 24 hours before compounds treatment. Cell proliferation was measured using CellTiter-Glo luciferase-based ATP detection assay (Promega) following the manufactures's protocol after 72 hours incubation. IC50 determinations were performed using GraphPad Prism software (GraphPad, Inc., San Diego, Calif.). Alternatively, essential thrombocythemia cell line SET-2 cells (harboring endogenous JAK2 […] point mutation) or T cell lymphoma Karpas-299 cell line (harboring endogenous NPM-ALK fusion gene) were cultured in RPMI medium, supplemented with 10% fetal bovine serum and 100 U/mL of penicillin/streptomycin. 5000 cells were seeded in 384 well white plate for 24 hours before compounds treatment. Cell proliferation was measured using CellTiter-Glo luciferase-based ATP detection assay (Promega) following the manufactures's protocol after 72 hours incubation. IC50 determinations were performed using GraphPad Prism software (GraphPad, Inc., San Diego, Calif.).

CD74-ROS1 Ba/F3 = target: T2, CD74-ROS1 Ba/F3 (Homo sapiens, UniProt P08922); experiment: Cell proliferation assay, CD74-ROS1 Ba/F3 stable cell line (CellTiter-Glo); details: Ba/F3-CD74-ROS1 wild type cells, 72 hours compound incubation; read-out: Cell Proliferation IC50 CD74-ROS1 Ba/F3
T2 construct: fused on or other part: P04233 (HLA class II histocompatibility antigen gamma chain)
T2 sequence (P08922 whole entry, change not shown, the tested form may be a part): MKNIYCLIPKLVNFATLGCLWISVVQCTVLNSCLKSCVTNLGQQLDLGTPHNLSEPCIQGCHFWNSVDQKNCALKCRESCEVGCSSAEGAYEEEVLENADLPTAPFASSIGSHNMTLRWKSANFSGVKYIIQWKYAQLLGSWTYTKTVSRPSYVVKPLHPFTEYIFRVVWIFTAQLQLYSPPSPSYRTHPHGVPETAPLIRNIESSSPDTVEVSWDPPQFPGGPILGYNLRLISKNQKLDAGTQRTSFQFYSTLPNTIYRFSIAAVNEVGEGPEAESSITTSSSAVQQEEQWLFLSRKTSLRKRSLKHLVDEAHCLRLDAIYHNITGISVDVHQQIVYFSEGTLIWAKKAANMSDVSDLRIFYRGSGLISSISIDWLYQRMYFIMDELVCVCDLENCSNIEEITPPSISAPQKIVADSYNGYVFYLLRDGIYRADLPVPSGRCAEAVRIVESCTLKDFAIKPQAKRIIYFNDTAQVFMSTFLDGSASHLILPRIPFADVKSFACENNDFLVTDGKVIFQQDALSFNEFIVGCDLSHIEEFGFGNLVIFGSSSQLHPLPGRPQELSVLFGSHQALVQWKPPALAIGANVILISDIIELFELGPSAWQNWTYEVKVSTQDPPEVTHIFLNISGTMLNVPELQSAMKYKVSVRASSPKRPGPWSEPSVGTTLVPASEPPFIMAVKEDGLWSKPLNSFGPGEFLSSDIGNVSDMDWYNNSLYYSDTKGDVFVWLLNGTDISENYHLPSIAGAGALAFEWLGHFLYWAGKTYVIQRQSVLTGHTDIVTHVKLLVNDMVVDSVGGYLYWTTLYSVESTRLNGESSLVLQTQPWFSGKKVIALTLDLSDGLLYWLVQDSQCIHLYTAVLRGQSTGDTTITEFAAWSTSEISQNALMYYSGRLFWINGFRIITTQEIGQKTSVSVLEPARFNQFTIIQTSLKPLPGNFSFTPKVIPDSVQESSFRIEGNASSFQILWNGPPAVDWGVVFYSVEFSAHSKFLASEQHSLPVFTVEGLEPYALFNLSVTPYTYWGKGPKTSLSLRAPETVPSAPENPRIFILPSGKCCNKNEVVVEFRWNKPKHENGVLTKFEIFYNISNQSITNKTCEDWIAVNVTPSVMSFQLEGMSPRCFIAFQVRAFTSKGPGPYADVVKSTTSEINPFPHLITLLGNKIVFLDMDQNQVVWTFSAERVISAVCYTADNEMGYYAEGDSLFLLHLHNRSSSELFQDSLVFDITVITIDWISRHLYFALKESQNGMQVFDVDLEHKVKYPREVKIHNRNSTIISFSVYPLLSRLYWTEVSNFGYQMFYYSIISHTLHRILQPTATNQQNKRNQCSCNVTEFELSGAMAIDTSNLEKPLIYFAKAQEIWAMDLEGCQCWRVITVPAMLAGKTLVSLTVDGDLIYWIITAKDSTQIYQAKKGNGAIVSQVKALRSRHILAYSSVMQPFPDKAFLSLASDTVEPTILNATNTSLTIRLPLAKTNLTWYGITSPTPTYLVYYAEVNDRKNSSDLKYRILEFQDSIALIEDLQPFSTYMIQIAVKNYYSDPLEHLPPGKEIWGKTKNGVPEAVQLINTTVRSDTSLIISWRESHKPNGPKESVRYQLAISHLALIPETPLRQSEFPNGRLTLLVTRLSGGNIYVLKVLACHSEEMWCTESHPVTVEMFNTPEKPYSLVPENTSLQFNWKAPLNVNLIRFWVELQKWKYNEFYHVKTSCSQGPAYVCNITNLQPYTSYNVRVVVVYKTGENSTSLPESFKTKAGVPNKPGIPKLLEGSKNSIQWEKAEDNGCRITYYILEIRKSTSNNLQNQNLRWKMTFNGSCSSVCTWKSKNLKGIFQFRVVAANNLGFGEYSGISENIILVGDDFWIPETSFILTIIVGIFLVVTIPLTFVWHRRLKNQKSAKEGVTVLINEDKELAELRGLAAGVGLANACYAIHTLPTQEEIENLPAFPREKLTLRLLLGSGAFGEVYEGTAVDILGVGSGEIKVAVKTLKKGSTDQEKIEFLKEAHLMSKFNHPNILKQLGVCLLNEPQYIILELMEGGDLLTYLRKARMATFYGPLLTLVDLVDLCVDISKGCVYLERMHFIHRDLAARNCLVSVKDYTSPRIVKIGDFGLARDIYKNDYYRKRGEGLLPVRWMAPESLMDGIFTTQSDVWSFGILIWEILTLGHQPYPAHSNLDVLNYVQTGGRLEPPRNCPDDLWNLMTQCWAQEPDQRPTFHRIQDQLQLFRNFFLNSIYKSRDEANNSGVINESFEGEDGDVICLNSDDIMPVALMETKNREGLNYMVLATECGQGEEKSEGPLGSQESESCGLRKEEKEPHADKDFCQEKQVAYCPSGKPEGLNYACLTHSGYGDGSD
Excerpt: Creation of CD74-ROS1 and EML4-ALK Ba/F3 Stable Cell Lines and Cell Proliferation Assays.
The CD74-ROS1 wild-type gene and EML4-ALK wild-type gene (variant 1) were synthesized at GenScript and cloned into pCDH-CMV-MCS-EF1-Puro plasmid (System Biosciences, Inc). Ba/F3-CD74-ROS1 and Ba/F3-EML4-ALK wild type cell lines were generated by infecting Ba/F3 cells with lentivirus containing CD74-ROS1 wide-type and EML4-ALK wild type. Stable cell lines were selected by puromycin treatment, followed by IL-3 withdrawal. 3000 cells were seeded in 384 well white plate overnight before compound treatment. Cell proliferation was measured using CellTiter-Glo luciferase-based ATP detection assay (Promega) following the manufactures's protocol after 72 hours of various concentration of compound incubation. IC50 determinations were performed using GraphPad Prism software (GraphPad, Inc., San Diego, Calif.).

[2] = system: essential thrombocythemia cell line SET-2 cells (harboring endogenous JAK2 point mutation); experiment: Cell proliferation assay, SET-2 cells (CellTiter-Glo); details: Homo sapiens, 72 hours incubation, read-out: Cell Proliferation IC50 SET2
Method in brief: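 Karpas-299 (NPM-ALK) or SET-2 (JAK2 […]) cells in RPMI with 10% FBS, seeded 24 h before compound addition. Viability read by CellTiter-Glo ATP luminescence after 72 h incubation; IC50 derived from dose–response curves.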

[3] = system: Colorectal cell lines KM 12 (harboring endogenous TPM3-TRKA fusion gene); experiment: Cell proliferation assay, KM12 cells (CellTiter-Glo); details: Homo sapiens, 72 hours incubation

T1 sequence (Q9UM73 whole entry, change not shown, the tested form may be a part): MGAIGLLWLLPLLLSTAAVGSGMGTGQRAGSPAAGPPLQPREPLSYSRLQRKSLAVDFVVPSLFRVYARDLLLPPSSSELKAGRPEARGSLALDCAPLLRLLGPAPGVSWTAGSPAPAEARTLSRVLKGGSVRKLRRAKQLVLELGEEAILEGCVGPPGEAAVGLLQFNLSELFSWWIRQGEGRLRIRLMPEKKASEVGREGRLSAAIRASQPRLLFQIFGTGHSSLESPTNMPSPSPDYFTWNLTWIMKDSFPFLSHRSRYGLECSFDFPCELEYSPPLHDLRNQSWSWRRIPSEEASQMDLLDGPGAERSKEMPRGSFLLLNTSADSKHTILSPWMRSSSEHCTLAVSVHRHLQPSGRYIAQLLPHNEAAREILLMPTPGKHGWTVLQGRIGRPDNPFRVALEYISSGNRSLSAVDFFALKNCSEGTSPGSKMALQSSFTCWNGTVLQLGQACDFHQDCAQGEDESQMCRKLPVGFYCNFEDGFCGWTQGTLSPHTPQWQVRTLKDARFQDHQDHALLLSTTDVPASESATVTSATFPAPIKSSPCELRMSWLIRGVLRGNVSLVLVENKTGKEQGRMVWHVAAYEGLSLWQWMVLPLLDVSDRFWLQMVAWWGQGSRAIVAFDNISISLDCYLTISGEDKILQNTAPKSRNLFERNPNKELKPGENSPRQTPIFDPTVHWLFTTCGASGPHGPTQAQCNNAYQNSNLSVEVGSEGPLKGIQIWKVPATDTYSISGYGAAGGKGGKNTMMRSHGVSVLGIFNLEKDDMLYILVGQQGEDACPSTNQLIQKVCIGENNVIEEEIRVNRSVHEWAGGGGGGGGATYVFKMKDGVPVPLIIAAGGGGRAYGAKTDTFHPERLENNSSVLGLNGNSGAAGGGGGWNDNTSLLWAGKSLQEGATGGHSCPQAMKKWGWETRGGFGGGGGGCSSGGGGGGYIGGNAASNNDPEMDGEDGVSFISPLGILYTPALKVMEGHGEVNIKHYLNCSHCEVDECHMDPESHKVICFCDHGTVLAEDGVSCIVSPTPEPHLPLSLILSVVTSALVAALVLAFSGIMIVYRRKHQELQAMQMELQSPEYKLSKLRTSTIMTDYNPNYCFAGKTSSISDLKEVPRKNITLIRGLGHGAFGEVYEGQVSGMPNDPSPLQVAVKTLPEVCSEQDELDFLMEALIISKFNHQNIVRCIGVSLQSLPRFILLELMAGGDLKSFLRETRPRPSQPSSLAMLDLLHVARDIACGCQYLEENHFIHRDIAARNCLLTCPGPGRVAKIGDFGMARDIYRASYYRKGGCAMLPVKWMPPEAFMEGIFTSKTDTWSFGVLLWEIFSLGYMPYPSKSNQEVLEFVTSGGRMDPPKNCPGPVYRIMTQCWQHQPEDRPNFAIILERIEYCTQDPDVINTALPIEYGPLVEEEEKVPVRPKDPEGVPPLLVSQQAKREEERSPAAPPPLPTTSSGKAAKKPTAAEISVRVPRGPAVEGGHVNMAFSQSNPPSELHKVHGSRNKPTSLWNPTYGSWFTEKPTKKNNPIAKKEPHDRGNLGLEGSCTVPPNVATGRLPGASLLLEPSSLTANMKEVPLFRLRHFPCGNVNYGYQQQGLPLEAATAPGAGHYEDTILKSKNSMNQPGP

GI50 (EML4-ALK Ba/F3) [nM]	IC50 [1] [nM]	GI50 (CD74-ROS1 Ba/F3) [nM]	Structure (SMILES)	IC50 [2] [nM]	IC50 [3] [nM]
151	144	0.2	CC[C@H]1CNC(=O)c2cnn3ccc(nc23)N[C@H](CC)c2cc(F)ccc2O1 [Compound 20, (7S,13R)-7,13-diethyl-11-fluoro-6,7,13,14-tetrahydro-1,15-ethenopyrazolo[4,3-f][1,4,8,10]benzoxatriazacyclotridecin-4(5H)-one]	404	3
6790	8030	45.2	CC[C@H]1COc2ccc(F)cc2[C@@H](CC)Nc2ccn3ncc(c3n2)C(=O)N1 [Compound 21, (6S,13R)-6,13-diethyl-11-fluoro-6,7,13,14-tetrahydro-1,15-ethenopyrazolo[4,3-f][1,4,8,10]benzoxatriazacyclotridecin-4(5H)-one]	1130	3
> 10000	352	1000	O=C1NCCOc2ccc(F)cc2[C@@H](CCO)Nc2ccn3ncc1c3n2 [Compound 22, (13R)-11-fluoro-13-(2-hydroxyethyl)-6,7,13,14-tetrahydro-1,15-ethenopyrazolo[4,3-f][1,4,8,10]benzoxatriazacyclotridecin-4(5H)-one]	854	22
475	264	8	CC(C)(O)[C@H]1Nc2ccn3ncc(c3n2)C(=O)NCCOc2ccc(F)cc21 [Compound 24, (13S)-11-fluoro-13-(2-hydroxypropan-2-yl)-6,7,13,14-tetrahydro-1,15-ethenopyrazolo[4,3-f][1,4,8,10]benzoxatriazacyclotridecin-4(5H)-one]	1320	5

— patent US11008337B2, “Chiral diaryl macrocycles as modulators of protein kinases” (Turning Point Therapeutics, Inc., priority 2015, dated 2021)
